These results are taken from ChEMBL document CHEMBL4339238, “Potent Anti-HIV Ingenane Diterpenoids from Euphorbia ebracteolata” (J Nat Prod, 2019).

In data set [1] the test system is Human immunodeficiency virus 1. The data set is described as follows: Antiviral activity against HIV NL4-3 infected in human MT4 cells measured on day 3 post-infection by Nano-Glo luciferase assay. Particulars: Human immunodeficiency virus 1, NL4-3, MT4, 72 h. Type of data set: functional, organism-based.
Data set [2] can be described thus: Cytotoxicity against human MT4 cells measured after 3 days by CytoTox-Glo assay. Type of data set: cell-based.
Data set [3] is described as follows: Selectivity index, ratio of CC50 for human MT4 cells to IC50 for HIV NL4-3 infected in human MT4 cells. The settings on record: read-out: Ratio CC50/IC50. Type of data set: toxicity, cell-based.

On to `CCCCCC/C=C/CCCCCCCC(=O)O[C@H]1C(C)=C[C@]23C(=O)[C@@H](C=C(CO)[C@@H](O)[C@@]12O)[C@H]1[C@@H](C[C@H]3C)C1(C)C`, for which, in data set [1], 1.1 nM corresponded to half-maximal inhibition (IC50). In addition, the CC50 (in general, the concentration giving 50% cytotoxicity) at 72 h in data set [2] turned out to be 13900 nM. Also, the selectivity ratio in data set [3] was 13100.

Consider `CCCC\C=C/C=C/C=C/C(=O)O[C@H]1C(C)=C[C@]23C(=O)[C@@H](C=C(COC(C)=O)[C@@H](O)[C@]12O)[C@H]1[C@@H](C[C@H]3C)C1(C)C`, for which, in data set [1], the IC50 – broadly, the concentration that inhibits the measured activity by half – was determined as 8.4 nM. Moreover, in data set [2], the CC50 at 72 h was greater than 900 nM. Also, in data set [3], the selectivity ratio was greater than 111.

`CCCC\C=C/C=C\C=C\C(=O)O[C@H]1C(C)=C[C@]23C(=O)[C@@H](C=C(COC(C)=O)[C@@H](O)[C@]12O)[C@H]1[C@@H](C[C@H]3C)C1(C)C`: 9.7 nM corresponded to half-maximal inhibition in data set [1] (IC50). Besides, the CC50 at 72 h in data set [2] is greater than 900 nM. Further, the selectivity ratio in data set [3] was greater than 96.2.

Molecule `CCCCCCCCCCCCCCCC(=O)OCC1=C[C@@H]2C(=O)[C@]3(C=C(C)[C@H](O)[C@@]3(O)[C@@H]1O)[C@H](C)C[C@@H]1[C@H]2C1(C)C` yielded a half-maximal inhibitory concentration (IC50) in data set [1] of 1.1 nM. This molecule showed a CC50 at 72 h in data set [2] greater than 1700 nM. The selectivity ratio in data set [3] is greater than 1540.

The molecule `CCCCCC/C=C\CCCCCCCC(=O)O[C@H]1C(C)=C[C@]23C(=O)[C@@H](C=C(CO)[C@@H](O)[C@@]12O)[C@H]1[C@@H](C[C@H]3C)C1(C)C` registered an IC50 in data set [1] of 2.7 nM. The molecule also returned a CC50 at 72 h in data set [2] greater than 1700 nM. Moreover, in data set [3], the selectivity ratio was greater than 625.

In data set [1], `Cc1cn([C@H]2C[C@H](N=[N+]=[N-])[C@@H](CO)O2)c(=O)[nH]c1=O` [ZIDOVUDINE] had an IC50 of 18.7 nM. Also, the CC50 at 72 h in data set [2] was greater than 370 nM. The selectivity ratio in data set [3] is greater than 20.

On to `CCCCC/C=C/C=C/C(=O)O[C@H]1C(C)=C[C@]23C(=O)[C@@H](C=C(COC(C)=O)[C@@H](O)[C@]12O)[C@H]1[C@@H](C[C@H]3C)C1(C)C`, for which the IC50 in data set [1] came to 5 nM. Moreover, the CC50 at 72 h in data set [2] is greater than 900 nM. For the same molecule, the selectivity ratio in data set [3] was greater than 185.

`CCCCCCCCCCCCCCCC(=O)O[C@@H]1C(CO)=C[C@@H]2C(=O)[C@]3(C=C(C)[C@H](O)[C@@]13O)[C@H](C)C[C@@H]1[C@H]2C1(C)C` gave an IC50 in data set [1] of 4.4 nM. For the same molecule, the CC50 at 72 h in data set [2] is greater than 1700 nM. Besides, the selectivity ratio in data set [3] was greater than 385.

In data set [1], `CCCCC/C=C\C=C\C(=O)O[C@@H]1C(COC(C)=O)=C[C@@H]2C(=O)[C@]3(C=C(C)[C@H](O)[C@@]13O)[C@H](C)C[C@@H]1[C@H]2C1(C)C` showed an IC50 of 0.7 nM. The CC50 at 72 h in data set [2] is 14300 nM. Moreover, the selectivity ratio in data set [3] turned out to be 20300.

Molecule `CCCCCCCCCCCCCC(=O)O[C@@H]1C(CO)=C[C@@H]2C(=O)[C@]3(C=C(C)[C@H](O)[C@@]13O)[C@H](C)C[C@@H]1[C@H]2C1(C)C` returned an IC50 in data set [1] of 3.9 nM. Also, the CC50 at 72 h in data set [2] is greater than 1800 nM. In data set [3], the selectivity ratio is greater than 454.

In data set [1], `CCCCCCCCCCCCCC(=O)OCC1=C[C@@H]2C(=O)[C@]3(C=C(C)[C@H](O)[C@@]3(O)[C@@H]1O)[C@H](C)C[C@@H]1[C@H]2C1(C)C` came in with an IC50 of 8.6 nM. Also, in data set [2], it took 32400 nM to reach half-maximal cytotoxicity (CC50 at 72 h). The selectivity ratio in data set [3] was 3770.

The molecule `CCCCCCCCCC(=O)OCC1=C[C@@H]2C(=O)[C@]3(C=C(C)[C@H](O)[C@@]3(O)[C@@H]1O)[C@H](C)C[C@@H]1[C@H]2C1(C)C` had an IC50 in data set [1] of 8.2 nM. Moreover, it took 48800 nM to reach half-maximal cytotoxicity in data set [2] (CC50 at 72 h). Also, the selectivity ratio in data set [3] was found to be 5980.

`CC1=C[C@]23C(=O)[C@@H](C=C(CO)[C@@H](O)[C@]2(O)[C@H]1O)[C@H]1[C@@H](C[C@H]3C)C1(C)C` [INGENOL] returned an IC50 in data set [1] greater than 10 nM. In data set [2], the CC50 at 72 h is greater than 10000 nM.

As to `CCCCC/C=C/C=C/C(=O)O[C@@H]1C(COC(C)=O)=C[C@@H]2C(=O)[C@]3(C=C(C)[C@H](O)[C@@]13O)[C@H](C)C[C@@H]1[C@H]2C1(C)C`, the IC50 in data set [1] was 1.2 nM. In data set [2], this molecule came in with a CC50 at 72 h of 15200 nM. In data set [3], the selectivity ratio amounted to 13000.

`CCCCCCCCCCCCCCCC(=O)O[C@H]1C(C)=C[C@]23C(=O)[C@@H](C=C(CO)[C@@H](O)[C@]12O)[C@H]1[C@@H](C[C@H]3C)C1(C)C` showed an IC50 in data set [1] of 4.1 nM. Further, the CC50 at 72 h in data set [2] came to 26300 nM. In addition, the selectivity ratio in data set [3] was 6420.

`CCCCC/C=C\C=C\C(=O)O[C@H]1C(C)=C[C@]23C(=O)[C@@H](C=C(COC(C)=O)[C@@H](O)[C@]12O)[C@H]1[C@@H](C[C@H]3C)C1(C)C` registered an IC50 in data set [1] of 1.8 nM. The same molecule registered a CC50 at 72 h in data set [2] greater than 900 nM. For the same molecule, the selectivity ratio in data set [3] is greater than 526.

In data set [1], `CCCCCCCCCCCCCC(=O)O[C@H]1C(C)=C[C@]23C(=O)[C@@H](C=C(CO)[C@@H](O)[C@]12O)[C@H]1[C@@H](C[C@H]3C)C1(C)C` displayed an IC50 of 2.3 nM. Also, in data set [2], the CC50 at 72 h came to 26300 nM. In data set [3], the selectivity ratio came out at 11300.
